Laboratory results as given in US7842856B2, “Herbicide resistance gene, compositions and methods” (The Board of Trustees of the University of Illinois, priority 2005, dated 2010).

Assays:
[1] = tested on: A. tuberculatus F1(R) hybrid (maternal parent R); assay: Herbicide dose-response on whole plants, F1(R) line; assay type: in vivo, Amaranthus tuberculatus (waterhemp); details: for GR50 (growth reduction by 50%) F1(R): F1(R) line
[2] = tested on: A. tuberculatus F1(S) hybrid (maternal parent S); assay: Herbicide dose-response on whole plants, F1(S) line; assay type: in vivo, Amaranthus tuberculatus (waterhemp)
[3] = tested on: A. tuberculatus PPO2L with glycine at position 210 expressed in E. coli SASX38; assay type: cell-based; details: LB with lactofen (100 nM, FIG. 6), 37° C., 14 hrs

CCOC(=O)C(C)OC(=O)c1cc(Oc2ccc(C(F)(F)F)cc2Cl)ccc1[N+](=O)[O-] (racemic) [Lactofen, (±)-2-ethoxy-1-methyl-2-oxoethyl 5-{2-chloro-4-(trifluoromethyl)phenoxy}-2-nitrobenzoate]
GR50 (growth reduction by 50%) F1(R) ([1]; 10 DAT): 0.7 g ai ha^−1 | GR50 (growth reduction by 50%) F1(R) ([1]; 15 DAT): 12 g ai ha^−1 | fold higher doses survived compared with S plants ([1]; lines heterozygous for resistance vs S plants (FIG. 2; Table 2)): 31 fold | GR50 (growth reduction by 50%) F1(S) ([2]; 10 DAT): 1.6 g ai ha^−1 | GR50 (growth reduction by 50%) F1(S) ([2]; 15 DAT): 13 g ai ha^−1 | growth of E. coli on lactofen-supplemented medium [3]: dramatically inhibited growth

O=C(O)c1cc(Oc2ccc(C(F)(F)F)cc2Cl)ccc1[N+](=O)[O-] [Acifluorfen, 5-{2-chloro-4-(trifluoromethyl)phenoxy}-2-nitrobezoic acid]
GR50 (growth reduction by 50%) F1(R) ([1]; 10 DAT): 3.8 g ai ha^−1 | GR50 (growth reduction by 50%) F1(S) ([2]; 10 DAT): 4.1 g ai ha^−1
